The test has as its system MCH receptors. The experiment in a line: MCH receptor activity class (method not given).
Where [1] appears, read: class 1-3 by percent of control at 10^-7 M or IC50.
The mark [2] stands for this setting: class by percent of control at 10^−7 M or IC50.
[3] abbreviates: class by percent of control at 10^-7 M or IC50.
The mark [4] stands for this setting: MCH receptor, class by percent of control at 10^-7 M or IC50.
[5] abbreviates: activity class 1-3: percent of control at 10^-7 M or IC50.

Molecules are shown by their SMILES.

Take `Cc1cc(C(=O)N[C@H]2CC[C@@H](Nc3nc4c(c(N(C)C)n3)CCCC4)CC2)nn1C(C)(C)C` [compound 526]: the class under setting [1] was 3 (Class 3 The value of percent of control at 10^−7 M was more than 60% or the value of IC50 was more than 200 nM.). Consider `COc1ccc(NC(=O)[C@H]2CC[C@@H](Nc3ncc(C)c(N(C)C)n3)CC2)cc1` [compound 2786], for which the class under setting [2] is 3 (Class 3 The value of percent of control at 10^−7 M was more than 60% or the value of IC50 was more than 200 nM.). As to `CN(C)c1ccnc(N[C@H]2CC[C@@H](CNCc3ccc(CO)o3)CC2)n1` [compound 1276], the class under setting [3] is listed as 3 (Class 3 The value of percent of control at 10^−7 M was more than 60% or the value of IC50 was more than 200 nM.). Same read-out and setting: in the case of `COc1ccc(NC(=O)N[C@H]2CC[C@@H](Nc3nc4c(c(N(C)C)n3)CCCC4)CC2)cc1OC` [compound 1720, N-(3,4-dimethoxyphenyl)-N′-(cis-4-{[4-(dimethylamino)-5,6,7,8-tetrahydroquinazolin-2-yl]amino}cyclohexyl)urea] it was 2 (Class 2: The value of percent of control at 10^−7 M was from 40% to 60% or the value of IC′50 was from 50 nM to 200 nM.). For the molecule `CN(C)c1nc(N[C@H]2CC[C@@H](NC(=S)Nc3ccc(C(C)(C)C)cc3)CC2)nc2c1CCCC2` [compound 2065], under setting [4], the class is reported as 3 (Class 3 The value of percent of control at 10^−7 M was more than 60% or the value of IC50 was more than 200 nM.). As for `CN(C)c1nc(N[C@H]2CC[C@@H](NCC(c3ccc(Cl)cc3)c3ccc(Cl)cc3)CC2)nc2c1CCCC2` [compound 1495], under setting [3], the class is 3 (Class 3 The value of percent of control at 10^−7 M was more than 60% or the value of IC50 was more than 200 nM.). Turning to `Cc1cc(C(=O)N[C@H]2CC[C@@H](Nc3nccc(N(C)C)n3)CC2)ccc1F` [compound 299, N-(cis-4-{[4-(dimethylamino)pyrimidin-2-yl]amino}cyclohexyl)-4-fluoro-3-methylbenzamide], under setting [3], the class is reported as 1 (Class 1: The value of percent of control at 10^−7 M was less than 40% or the value of IC50 was less than 50 nM.). On the same count and under the same terms, in the case of `CCCCCCCOc1ccc(NC(=O)N[C@H]2CC[C@@H](Nc3nc4c(c(N(C)C)n3)CCCC4)CC2)cc1` [compound 1891] it was 3 (Class 3 The value of percent of control at 10^−7 M was more than 60% or the value of IC50 was more than 200 nM.). With `Cc1cnc(N[C@H]2CC[C@@H](NC(=O)c3cccc(OC(C)C)c3)CC2)nc1N(C)C` [compound 2928, N-(cis-4-{[4-(dimethylamino)-5-methylpyrimidin-2-yl]amino}cyclohexyl)-3-isopropoxybenzamide], the class under setting [2] is listed as 2 (Class 2: The value of percent of control at 10^−7 M was from 40% to 60% or the value of IC′50 was from 50 nM to 200 nM.).

For `Cc1ccc(C(=O)N[C@H]2CC[C@@H](Nc3nc(C)c(C)c(N(C)C)n3)CC2)s1` [compound 2858], under setting [2], the class was 1 (Class 1: The value of percent of control at 10^−7 M was less than 40% or the value of IC50 was less than 50 nM.). With `CN(C)c1cc(N[C@H]2CC[C@@H](CNC(=O)c3cccc([N+](=O)[O-])c3)CC2)nc2ccccc12` [compound 171, N-[(cis-4-{[4-(dimethylamino)quinolin-2-yl]amino}cyclohexyl)methyl]-3-nitrobenzamide], under setting [4], the class is 3 (Class 3 The value of percent of control at 10^−7 M was more than 60% or the value of IC50 was more than 200 nM.). Turning to `CN(C)c1cc(N[C@H]2CC[C@@H](CNC(=O)c3ccc([N+](=O)[O-])s3)CC2)nc2ccccc12` [compound 802, N-[(cis-4-{[4-(dimethylamino)quinolin-2-yl]amino}cyclohexyl)methyl]-5-nitrothiophene-2-carboxamide], the class under setting [3] is listed as 3 (Class 3 The value of percent of control at 10^−7 M was more than 60% or the value of IC50 was more than 200 nM.). With `Cc1cnc(N[C@H]2CC[C@@H](NC(=O)C3(c4ccc(Cl)cc4)CC3)CC2)nc1N(C)C` [compound 2870], the class under setting [2] is 1 (Class 1: The value of percent of control at 10^−7 M was less than 40% or the value of IC50 was less than 50 nM.). Turning to `Cc1cc(C)c(CNC[C@H]2CC[C@@H](Nc3nccc(N(C)C)n3)CC2)c(C)c1` [compound 1302], the class under setting [3] was 3 (Class 3 The value of percent of control at 10^−7 M was more than 60% or the value of IC50 was more than 200 nM.). With `Cc1noc(-c2ccccc2)c1NC(=O)NC[C@H]1CC[C@@H](Nc2nccc(N(C)C)n2)CC1` [compound 2437], the class (MCH receptor activity class 1-3 (percent of control at 10^-7 M or IC50)) was 1 (Class 1: The value of percent of control at 10^−7 M was less than 40% or the value of IC50 was less than 50 nM.). As to `C[C@H](C(=O)N[C@H]1CC[C@@H](Nc2cc(N(C)C)c3ccccc3n2)CC1)c1cccc(C(=O)c2ccccc2)c1` [compound 738], the class under setting [3] was 3 (Class 3 The value of percent of control at 10^−7 M was more than 60% or the value of IC50 was more than 200 nM.). Regarding `Cc1nc(N[C@H]2CC[C@@H](NC(=O)c3ccc(F)cc3)CC2)nc(N(C)C)c1C` [compound 2846, N-(cis-4-{[4-(dimethylamino)-5,6-dimethylpyrimidin-2-yl]amino}cyclohexyl)-4-fluorobenzamide], the class under setting [2] is recorded as 1 (Class 1: The value of percent of control at 10^−7 M was less than 40% or the value of IC50 was less than 50 nM.). Still for that read-out and setting: in the case of `Cc1cc(N(C)C)nc(N[C@H]2CC[C@@H](NC(=O)C(c3ccccc3)c3ccccc3)CC2)n1` [compound 2993, N-(cis-4-{[4-(dimethylamino)-6-methylpyrimidin-2-yl]amino}cyclohexyl)-2,2-diphenylacetamide] it was 1 (Class 1: The value of percent of control at 10^−7 M was less than 40% or the value of IC50 was less than 50 nM.). For `CC(C)c1cccc(C(C)C)c1NC(=O)NC[C@H]1CC[C@@H](Nc2nc3c(c(N(C)C)n2)CCCC3)CC1` [compound 2488, N-(2,6-diisopropylphenyl)-N′-[(cis-4-{[4-(dimethylamino)-5,6,7,8-tetrahydroquinazolin-2-yl]amino}cyclohexyl)methyl]urea], under setting [3], the class is listed as 2 (Class 2: The value of percent of control at 10^−7 M was from 40% to 60% or the value of IC′50 was from 50 nM to 200 nM.).

On to `Cc1ccccc1NC(=O)N[C@H]1CC[C@@H](Nc2nccc(N(C)C)n2)CC1` [compound 2188], for which, under setting [3], the class is recorded as 3 (Class 3 The value of percent of control at 10^−7 M was more than 60% or the value of IC50 was more than 200 nM.). Still for that read-out and setting: in the case of `CCOC(=O)c1[nH]c2cc(Cl)cc(Cl)c2c1CN[C@H]1CC[C@@H](Nc2nc3c(c(N(C)C)n2)CCCC3)CC1` [compound 1357] it was 1 (Class 1: The value of percent of control at 10^−7 M was less than 40% or the value of IC50 was less than 50 nM.); in that of `CN(C)c1nc(N[C@H]2CC[C@@H](CNC(=O)Nc3c(Cl)cccc3Cl)CC2)nc2c1CCCC2` [compound 2491, N-(2,6-dichlorophenyl)-N′-[(cis-4-{[4-(dimethylamino)-5,6,7,8-tetrahydroquinazolin-2-yl]amino}cyclohexyl)methyl]urea], 1 (Class 1: The value of percent of control at 10^−7 M was less than 40% or the value of IC50 was less than 50 nM.).

Turning to `CN(C)c1ccnc(N[C@H]2CC[C@@H](CNC(=O)OCc3ccccc3Cl)CC2)n1` [compound 1656], under setting [5], the class is given as 3 (Class 3 The value of percent of control at 10^−7 M was more than 60% or the value of IC50 was more than 200 nM.).

Turning to `Cc1cc(Cl)ccc1NC(=O)N[C@H]1CC[C@@H](Nc2nccc(N(C)C)n2)CC1` [compound 2244, N-(4-chloro-2-methylphenyl)-N′-(cis-4-{[4-(dimethylamino)pyrimidin-2-yl]amino}cyclohexyl)urea], the class under setting [3] is recorded as 2 (Class 2: The value of percent of control at 10^−7 M was from 40% to 60% or the value of IC′50 was from 50 nM to 200 nM.). The same measure, in the same setting: the figure for `COc1cc(CNC[C@H]2CC[C@@H](Nc3nc4c(c(N(C)C)n3)CCCC4)CC2)cc(Br)c1OC` [compound 1431] is 3 (Class 3 The value of percent of control at 10^−7 M was more than 60% or the value of IC50 was more than 200 nM.). On to `Cc1cc(N(C)C)nc(N[C@H]2CC[C@@H](NC(=O)c3cccc(OC(F)(F)F)c3)CC2)n1` [compound 2967, N-(cis-4-{[4-(dimethylamino)-6-methylpyrimidin-2-yl]amino}cyclohexyl)-3-(trifluoromethoxy)benzamide], for which the class under setting [2] is 1 (Class 1: The value of percent of control at 10^−7 M was less than 40% or the value of IC50 was less than 50 nM.). On to `COc1ccc(C(=O)N[C@H]2CC[C@@H](Nc3nccc(N(C)C)n3)CC2)cc1OC` [compound 322], for which the class under setting [3] is on record as 3 (Class 3 The value of percent of control at 10^−7 M was more than 60% or the value of IC50 was more than 200 nM.). On to `CN(C)c1nc(N[C@H]2CC[C@@H](NC(=S)Nc3c(F)cccc3F)CC2)nc2c1CCCC2` [compound 1974], for which, under setting [4], the class is recorded as 3 (Class 3 The value of percent of control at 10^−7 M was more than 60% or the value of IC50 was more than 200 nM.). In the case of `CN(C)c1nc(N[C@H]2CC[C@@H](NCCc3ccc(Br)cc3)CC2)nc2c1CCCC2` [compound 1481], the class under setting [3] is 3 (Class 3 The value of percent of control at 10^−7 M was more than 60% or the value of IC50 was more than 200 nM.). With `Cc1cc(C(=O)N[C@H]2CC[C@@H](Nc3nc4c(c(N(C)C)n3)CCCC4)CC2)c(C(F)(F)F)o1` [compound 506], the class under setting [1] was 2 (Class 2: The value of percent of control at 10^−7 M was from 40% to 60% or the value of IC′50 was from 50 nM to 200 nM.). Turning to `COc1cc(CN[C@H]2CC[C@@H](Nc3cc(N(C)C)c4ccccc4n3)CC2)cc(OC)c1` [compound 1101], where the note is “activity class per percent of control at 10^-7 M or IC50”, the class is on record as 3 (Class 3 The value of percent of control at 10^−7 M was more than 60% or the value of IC50 was more than 200 nM.). In the case of `CSc1ccccc1NC(=S)N[C@H]1CC[C@@H](Nc2nc3c(c(N(C)C)n2)CCCC3)CC1` [compound 1967], the class under setting [4] is 3 (Class 3 The value of percent of control at 10^−7 M was more than 60% or the value of IC50 was more than 200 nM.). Consider `CN(C)c1nc(N[C@H]2CC[C@@H](NC(=O)Nc3ccc(Oc4ccccc4)cc3)CC2)nc2c1CCCC2` [compound 1702], for which the class under setting [5] was 3 (Class 3 The value of percent of control at 10^−7 M was more than 60% or the value of IC50 was more than 200 nM.).

(Values after patent US20050197350A1, “Novel quinoline, tetrahydroquinazoline, and pyrimidine derivatives and methods of treatment related to the use thereof” (TAISHO PHARMACEUTICAL CO., LTD., priority 2003, published 2005).)
